Test results published in paper PMC8231256, “Influence of N-Methylation and Conformation on Almiramide Anti-Leishmanial Activity” (Molecules, 2021).
Values joined by “and” are separate entries in the source; they are usually repeats but may differ in a detail not shown here. Identical values can stand only once. Like-named read-outs stand apart in the source and are kept apart here. Where a SMILES comes first, the peptide text is derived from it. [ ]: non-standard residue; d: D form. The star is where a group is joined. NMeF = CN[C@@H](Cc1ccccc1)C(=O)O; NMeV = CN[C@H](C(=O)O)C(C)C; Hept6ynoyl = C#CCCCCC(=O)*; NMeA = CN[C@@H](C)C(=O)O; NH(CH2)6NH2 = NCCCCCCN*

Legend:
[1] = test system: L. infantum (MHOM/MA/67/ITMAP-263) wild-type strain (WT) promastigotes; format: cell-based, Leishmania infantum; settings: for EC50: 72 h; for Selectivity Index: SI = CC50 (LM-1 macrophage)/EC50 Ldi WT
Procedure: (§1) The biological activity of peptides 15–37 was assessed against the L. infantum wild-type stain (WT), as well as mutants resistant to the common anti-leishmanial agents, such as antimony (Sb^III), amphotericin B (AmB) and miltefosine (MF): Sb2000.1, AmB1000.1 and MF200.5. Activity against Leishmania promastigotes was determined by monitoring the replication of parasites after 72 h of incubation at 25 °C in the presence of increasing concentrations of the different peptides […] and reported as EC50 values (Table 2). […] The greatest potencies were observed using analogs against the amphotericin B resistant strain (e.g., AmB1000.1).
(§2) The L. infantum (MHOM/MA/67/ITMAP-263) wild-type stain (WT), as well as the resistant mutants Sb2000.1, AmB1000.1 and MF200.5 [53, 54, 55, 56, 57, 58], resistant to antimony (Sb^III), amphotericin B (AmB) and miltefosine (MF), respectively, were grown in M199 medium at 25 °C supplemented with 10% fetal bovine serum, 5 μg/mL of haemin at pH 7.0 and 2000 μM Sb (Potassium antimonyl tartrate, Sigma-Aldrich), 200 μM of MF (Miltefosine, Cayman Chem., Ann Arbor, MI, USA) or 1 μM AmB (Amphotericin B solution, Sigma, Oakville, ON, Canada). Antileishmanial values were determined in Leishmania promastigotes by monitoring the replication of parasites after 72 h of incubation at 25 °C in the presence of increasing concentrations of the different peptides by measuring A600 using a Cytation 5 machine (BioTek, Winooski, VT, USA). EC50 values were calculated based on dose–response curves analyzed by non-linear regression with GraphPad Prism 8.4.3 software (GraphPad Software, La Jolla, CA, USA). An average of at least three independent biological replicates from independent cultures was performed for each determination.

[2] = test system: L. infantum AmB1000.1 (resistant to amphotericin B) promastigotes; format: cell-based, Leishmania infantum; settings: for EC50: strain resistant to 1 µM amphotericin B, promastigotes, 72 h, 25 °C, 95% CI in brackets (n = 3), read-out: Ldi AmB-Res EC50
Procedure: as §1, §2

[3] = test system: L. infantum MF200.5 (resistant to miltefosine) promastigotes; format: cell-based, Leishmania infantum; settings: strain resistant to 200 µM miltefosine; promastigotes, 72 h, 25 °C; 95% CI in brackets (n = 3); read-out: Ldi MF-Res EC50
Procedure: as §1, §2

[4] = test system: L. infantum Sb2000.1 (resistant to antimony) promastigotes; format: cell-based, Leishmania infantum; settings: strain resistant to 2 mM antimonials, 72 h, 25 °C, 95% CI in brackets (n = 3), read-out: Ldi Sb-Res EC50
Procedure: as §1, §2

[5] = LM-1 macrophage cytotoxicity (Alamar Blue); format: cell-based, murine; settings: for CC50 at 24 h: mouse
Procedure: The host cytotoxicity was evaluated by monitoring the survival rates of murine LM-1 macrophage at different concentrations of peptides 15–37 ([…]) over 24 h. […] Exceptionally, MeAla peptide amide 21 was 3.2- to 8-fold less toxic than the other peptide analogs.
The LM1- macrophages were grown in DMEM supplemented with 10% heat inactivated FBS. Cells at the concentration of 100,000 cells/mL were cultivated for 24 h in a 96-well plate (37 °C, 5% CO2). The culture medium was removed and fresh medium containing the appropriate drug and concentration was added to the cells, which were incubated for 24 h (37 °C, 5% CO2). Seven different concentrations were tested ([…]) as well as controls (without drugs). After 24 h, the culture medium was removed and replaced for fresh medium containing 10% Alamar Blue (Thermo Fisher Scientific, Waltham, MA, USA) and incubated for 2 h (37 °C, 5% CO2). Readings at 570 and 600 nm (Asys UVM340 Plate reader, Biochrom, Cambridge, UK) were taken and analyzed according to the manufacturer protocol. Survival rates at different drug concentrations and CC50 values were calculated using the Excel software.

[6] = MHOM/MA/67/ITMAP-263) wild-type strain (WT) promastigotes
[7] = promastigotes, 25 °C, 95% confidence interval in brackets (n = 3), read-out: Ldi WT EC50
[8] = LM-1 macrophages, 24 h, Alamar Blue, read-out: CC50

SMILES	EC50 [1, 6] [µM]	Selectivity Index [1]	EC50 [2] [µM]	EC50 [3] [µM]	EC50 [4] [µM]	CC50 [5] [µM]	CC50 at 24 h [5] [µM]	EC50 [1, 7] [µM]	CC50 at 24 h [5, 8] [µM]	fold more active than nonmethylated counterpart ([2]; AmB1000.1, 17 vs 16, 35 vs 31) [fold]	therapeutic index ([2]; macrophage toxicity compared with potency against the AmB resistant Leishmania strain)
C#CCCCCC(=O)N[C@H](C(=O)N[C@H](C(=O)N[C@H](C(=O)N[C@H]1CCN([C@H](Cc2ccccc2)C(=O)NCCCCCCN)C1=O)C(C)C)C(C)C)C(C)C [R-32, HCC(CH2)4CO-Val-Val-Val-Agl-D-Phe-NH(CH2)6NH2]	92.6	3.6	118	123	111	338					
C#CCCCCC(=O)N[C@H](C(=O)N(C)[C@H](C(=O)N[C@H](C(=O)N[C@@H](C)C(=O)N[C@@H](Cc1ccccc1)C(=O)NCCCCCCN)C(C)C)C(C)C)C(C)C [compound 19, HCC(CH2)4CO-Val-Val(Me)-Val-Ala-Phe-NH(CH2)6NH2] (Hept6ynoyl-V[NMeV]VAF-{NH(CH2)6NH2})	81.2	3.9	70.3	89.2	78.9		316				
C#CCCCCC(=O)N(C)[C@H](C(=O)N(C)[C@H](C(=O)N(C)[C@H](C(=O)N(C)[C@@H](C)C(=O)N(C)[C@@H](Cc1ccccc1)C(=O)O)C(C)C)C(C)C)C(C)C [peptide 12, HCC(CH2)4CO-Val(Me)-Val(Me)-Val(Me)-Ala(Me)-Phe(Me)-OH] (Hept6ynoyl-[NMeV][NMeV][NMeV][NMeA][NMeF]-OH)		4.1	79.6	75.6	70.7			68.3	281		
C#CCCCCC(=O)N[C@H](C(=O)N[C@H](C(=O)N[C@H](C(=O)N[C@@H](C)C(=O)N[C@@H](Cc1ccccc1)C(=O)O)C(C)C)C(C)C)C(C)C [peptide 15, HCC(CH2)4CO-Val-Val-Val-Ala-Phe-OH] (Hept6ynoyl-VVVAF-OH)	44.7	7.0	46.4	50.8	60.3		316				
C#CCCCCC(=O)N[C@H](C(=O)N[C@H](C(=O)N[C@H](C(=O)N[C@@H](C)C(=O)N[C@@H](Cc1ccccc1)C(=O)NCCCCCCN)C(C)C)C(C)C)C(C)C [peptide 16, HCC(CH2)4CO-Val-Val-Val-Ala-Phe-NH(CH2)6NH2] (Hept6ynoyl-VVVAF-{NH(CH2)6NH2})	23.4	19.2 and 19.0	20.8	18.1	30.3		446				
C#CCCCCC(=O)N(C)[C@H](C(=O)N(C)[C@H](C(=O)N(C)[C@H](C(=O)N(C)[C@@H](C)C(=O)N(C)[C@@H](Cc1ccccc1)C(=O)NCCCCCCN)C(C)C)C(C)C)C(C)C [peptide 17, HCC(CH2)4CO-Val(Me)-Val(Me)-Val(Me)-Ala(Me)-Phe(Me)-NH(CH2)6NH2] (Hept6ynoyl-[NMeV][NMeV][NMeV][NMeA][NMeF]-{NH(CH2)6NH2})		6.9	5.6	25.5	60.2			48.4	338	4	
C#CCCCCC(=O)N(C)[C@H](C(=O)N[C@H](C(=O)N[C@H](C(=O)N[C@@H](C)C(=O)N[C@@H](Cc1ccccc1)C(=O)NCCCCCCN)C(C)C)C(C)C)C(C)C [peptide 18, HCC(CH2)4CO-Val(Me)-Val-Val-Ala-Phe-NH(CH2)6NH2] (Hept6ynoyl-[NMeV]VVAF-{NH(CH2)6NH2})	36.7	4.8	5.03	12.1	39.6		177				36
C#CCCCCC(=O)N[C@H](C(=O)N[C@H](C(=O)N(C)[C@H](C(=O)N[C@@H](C)C(=O)N[C@@H](Cc1ccccc1)C(=O)NCCCCCCN)C(C)C)C(C)C)C(C)C [peptide 20, HCC(CH2)4CO-Val-Val-Val(Me)-Ala-Phe-NH(CH2)6NH2] (Hept6ynoyl-VV[NMeV]AF-{NH(CH2)6NH2})	53.9	5.2	57.2	60.6	40.2		281				
C#CCCCCC(=O)N[C@H](C(=O)N[C@H](C(=O)N[C@H](C(=O)N(C)[C@@H](C)C(=O)N[C@@H](Cc1ccccc1)C(=O)NCCCCCCN)C(C)C)C(C)C)C(C)C [peptide 21, HCC(CH2)4CO-Val-Val-Val-Ala(Me)-Phe-NH(CH2)6NH2] (Hept6ynoyl-VVV[NMeA]F-{NH(CH2)6NH2})	75.8	19.1 and 18.9	65.7	63.5	79.8		1440				
C#CCCCCC(=O)N[C@H](C(=O)N[C@H](C(=O)N[C@H](C(=O)N[C@@H](C)C(=O)N(C)[C@@H](Cc1ccccc1)C(=O)NCCCCCCN)C(C)C)C(C)C)C(C)C [peptide 22, HCC(CH2)4CO-Val-Val-Val-Ala-Phe(Me)-NH(CH2)6NH2] (Hept6ynoyl-VVVA[NMeF]-{NH(CH2)6NH2})	29	15.3	25.9	27.8	25		446				
C#CCCCCC(=O)N[C@H]1CCN([C@H](C(=O)N[C@H](C(=O)N[C@@H](C)C(=O)N[C@@H](Cc2ccccc2)C(=O)O)C(C)C)C(C)C)C1=O [peptide 23, HCC(CH2)4CO-Agl-Val-Val-Ala-Phe-OH]	225	1.61	212	232	241		363				
C#CCCCCC(=O)N[C@H](C(=O)N[C@H]1CCN([C@H](C(=O)N[C@@H](C)C(=O)N[C@@H](Cc2ccccc2)C(=O)O)C(C)C)C1=O)C(C)C [peptide 24, HCC(CH2)4CO-Val-Agl-Val-Ala-Phe-OH]	248	1.6	261	238	251		398				
C#CCCCCC(=O)N[C@H](C(=O)N[C@H](C(=O)N[C@H]1CCN([C@@H](C)C(=O)N[C@@H](Cc2ccccc2)C(=O)O)C1=O)C(C)C)C(C)C [peptide 25, HCC(CH2)4CO-Val-Val-Agl-Ala-Phe-OH]			> 300	> 300	> 300		416	> 300			
C#CCCCCC(=O)N(C)[C@H]1CCN([C@H](C(=O)N(C)[C@H](C(=O)N(C)[C@@H](C)C(=O)N(C)[C@@H](Cc2ccccc2)C(=O)O)C(C)C)C(C)C)C1=O [peptide 26, HCC(CH2)4CO-Agl(Me)-Val-Val(Me)-Ala-Phe(Me)-OH]	217	1.46	252	224	220		316				
C#CCCCCC(=O)N(C)[C@H](C(=O)N(C)[C@H]1CCN([C@H](C(=O)N(C)[C@@H](C)C(=O)N(C)[C@@H](Cc2ccccc2)C(=O)NCCCCCCN)C(C)C)C1=O)C(C)C [peptide 34, HCC(CH2)4CO-Val(Me)-Agl(Me)-Val-Ala(Me)-Phe(Me)-NH(CH2)6NH2]	33.2	12.0	24.8	23.1			398				
